Tests used:
[1] = tested on: A431, MCF-7, HeLa, HepG2, PC3, SKOV3, A549, U251, K562, and Caco-2 tumor cells; assay: MTT assay, tumor cell growth with serine/glycine at different levels; format: cell-based; conditions: low serine level or low glycine level compared to high serine and glycine levels; 48 hours culture
[2] = tested on: A431, MCF-7, HeLa, HepG2, PC3, SKOV3, A549, U251, K562, and Caco-2 tumor cells; assay: Transwell migration assay with serine/glycine at different levels; format: cell-based; conditions: low serine level or low glycine level compared to high serine and glycine levels

Row | Structure (SMILES) | cell growth (MTT, growth %) [1] | migration capability (Transwell, metastasis %) [2]
1 | NCC(=O)O [glycine] | grew slowly | relatively high migration capability
2 | N[C@@H](CO)C(=O)O [serine] | grew slowly | relatively high migration capability
